Structures can show the parent of a compound that is named as a salt. Where two headings read alike, the source gives them in different places.
What was measured:
μ opioid receptor = target: T1, μ opioid receptor (Homo sapiens, UniProt P35372); experiment: Competition binding assay on membranes of CHO cells expressing μ opioid receptor, [3H]-labeled ligand; conditions: for Ki: read-out: μOR Ki
T1 construct: expressed in transfected cells; host or cells: CHO cells (membranes)
Protocol: (§1) CHO cells expressing p opioid receptor, δ opioid receptor and κ opioid receptor were cultured in 10 cm^2 culture dishes (F-12 medium+10% neonatal bovine serum) for several days, and the culture fluid was aspirated after the cells had grown to the bottom of the dishes; 3 ml of PBS/EDTA solution (0.1M NaCl, 0.01M NaH2PO4, 0.04% EDTA) was added to digest the cells for 3-5 min. Add ice-cold homogenate (50 mM HEPES PH 7.4, 3 mM MgCl, 1 mM EGTA) to the centrifuge tube, transfer the solution and sediment to a homogenizer and homogenize; then transfer the homogenate to a centrifuge tube and centrifuge at 18000 rpm. Centrifuge for 15 min, two times; the obtained precipitate was homogenized with appropriate amount of 50 mM Tris-HCl, pH 7.4 buffer and divided into centrifuge tubes and stored at −70° C. in the refrigerator until use.
(§2) The total binding tube was spiked with 20-30 μg of the expressed membrane receptor protein and […] ligand (1-2 nM), the corresponding non-specific binding tube was spiked with 1 μM of the corresponding ligand, and the sample tubes were spiked with various screened opioid ligands in a final volume of […], incubated at 30° C. for 30 min, and the reaction was terminated in ice water. […] The samples were filtered under negative pressure through GF/C (whatman) glass fiber filter paper on a Millipore sample collector. The reaction was rinsed three times with 4 ml of 50 mMV Tris-HCl (pH 7.4), the filter paper was dried and placed in 0.5 ml Eppendorf tubes with 0.5 ml of lipophilic scintillation solution, the radioactivity was measured by PERKIN ELMER PRI-CARB 2910 liquid scintillation counter and the inhibition rate was calculated. Inhibition rate (or binding rate)=(total binding rate dpm−sample tube dpm)/(total binding tube dpm−non-specific binding tube dpm)×100%
(§3) IC50 was calculated using Prism 5.0 software. the Ki value was calculated as follows, Ki=IC50/(1+[IL]/Kd), [lL] is the concentration of the added labeled ligand and Kd is the equilibrium dissociation parameter of the labeled ligand.
(§4) CHO cells expressing p opioid receptor, δ opioid receptor and κ opioid receptor were cultured in a 10 cm^2 culture dish (F-12 medium+10% neonatal bovine serum) for several days, and the culture fluid was aspirated after the cells grew to the bottom of the dish. 3 mL PBS/EDTA solution (0.1 M NaCl, 0.01 M NaH2PO4, 0.04% EDTA) was added to digest the cells for 3˜5 min, blew with a pipette to completely dislodge the cells. The cells were collected in a 40 mL centrifuge tube, centrifuged at 5000 rpm for 5 min. The supernatant was removed and the ice-cold homogenate (50 mM HEPES pH 7.4, 3 mM MgCl2, 1 mM EGTA) was added to the centrifuge tube. The solution and the precipitate were transferred to a homogenizer. Then the homogenate was transferred to a centrifuge tube and centrifuged at 18000 rpm for 15 min. The precipitate was centrifuged twice at 18000 rpm for 15 min. The obtained precipitate was homogenized by adding appropriate amount of 50 mM Tris-HCl, pH 7.4 buffer and divided into centrifuge tubes and stored at −70° C. in the refrigerator until use.
(§5) The total binding tube was added with 20-30 μg of expressed membrane receptor protein and [3H]-labeled ligand (1-2 nM). The corresponding non-specific binding tube was added with 1 μM of the corresponding ligand, and the sample tubes were added with various screened opioid ligands in a final volume of 100 μL. All of them were incubated for 30 min at 30° C., and the reaction was terminated in ice water. The samples were filtered under negative pressure through GF/C (Whatman) glass fiber filter paper on a Millipore sample collector. The reaction was rinsed three times with 4 mL of 50 mM Tris-HCl (pH 7.4), the filter paper was dried and placed in 0.5 mL Eppendorf tubes with 0.5 mL of lipophilic scintillation solution. […]

δ opioid receptor = target: T2, δ opioid receptor (Homo sapiens, UniProt P41143); experiment: Competition binding assay on membranes of CHO cells expressing δ opioid receptor, [3H]-labeled ligand; conditions: for Ki: read-out: δOR Ki
T2 construct: expressed in transfected cells; host or cells: CHO cells (membranes)
Protocol: as §1, §2, §3, §4, §5

κ opioid receptor = target: T3, κ opioid receptor (Homo sapiens, UniProt P41145); experiment: Competition binding assay on membranes of CHO cells expressing κ opioid receptor, [3H]-labeled ligand; conditions: for Ki: read-out: κOR Ki
T3 construct: expressed in transfected cells; host or cells: CHO cells (membranes)
Protocol: as §1, §2, §3, §4, §5

Female mice = experiment: In vivo hot plate method analgesia test; conditions: intraperitoneal; for Maximum percentage effective analgesia (% MPE): Table 5-2, hot plate 55° C.; for Maximum percentage effective analgesia (% MPE) / % MPE @ 10 mg/kg: 10 mg/kg dose; for % MPE @ 10 mg/kg: Table 3-2, hot plate 55° C.; for % MPE (5 mg/kg): Table 2-2, hot plate 55° C.
Protocol: Female mice weighing about 20 g were placed on a hot plate apparatus preheated to 55° C., and the latency of the hindfoot response of the mice was used as the pain threshold indicator. Animals were screened before the experiment, and those with response latency less than 5 s or more than 30 s were excluded. To prevent foot scalding, the maximum observation time was set at 60 s. The basal pain threshold was the average of two measurements, with a 5-min interval between measurements. pain thresholds were measured at 15 m, 30 m, 60 m and 120 m after intraperitoneal injection in each group of mice. The percentage effective analgesia (% MPE) was calculated according to the following formula: percentage effective analgesia (% MPE) (post-dose latency−pre-dose latency)/(60−pre-dose latency)×100%. ED50 values were calculated based on the effective percentage of analgesia using the software Graphpad prism 5.0 software.
(§6) Female mice weighing about 20 g were placed on a hot plate apparatus preheated to 55° C., and the latency of the hindfoot response of the mice was used as the pain threshold indicator. Animals were selected before the experiment, and those with response latency less than 5 s or greater than 30 s were excluded. To prevent foot scalding, the maximum observation time was set at 60 s. The basal pain threshold was the average of two measurements, with a 5-min interval between measurements. pain thresholds were measured at 15 min, 30 min, 60 min and 120 min after intraperitoneal administration in each group of mice. The percentage of analgesic effectiveness (% MPE) was calculated according to the following equation. Percentage of effective analgesia (% MPE)_(Pre-dose incubation period−Incubation period after drug administration)/(60-Pre-dose incubation period)×100%. ED50 values were calculated based on the effective percentage of analgesia using GraphPad prism 5.0 software.
as §6, with “were screened” for “were selected”, “measurements. Pain” for “measurements. pain”, “following formula.” for “following equation. Percentage of effective analgesia (% MPE)_(Pre-dose incubation period−Incubation period after drug administration)/(60-Pre-dose incubation period)×100%. ED50 values were calculated based on the effective percentage of analgesia using GraphPad prism 5.0 software.”
ED50 values were calculated based on the effective percentage of analgesia using Graphpad Prism 5.0.
Female mice weighing about 20 g were placed on a hot plate apparatus preheated to 55° C., and the latency of the hindfoot response of the mice was used as the pain threshold indicator. Animals were screened before the experiment, and those with response latency less than 5 s or more than 30 s were excluded. To prevent foot scalding, the maximum observation time was set at 60 s. The basal pain threshold was the average of two measurements, with a 5-min interval between measurements. pain thresholds were measured at 15 min, 30 min, 60 min and 120 min after intraperitoneal administration in each group of mice. The analgesic effective percentage (% MPE) was calculated according to the following formula: analgesic effective percentage (% MPE)=(latency after drug administration−latency before drug administration)/(60−latency before drug administration)×100%. ED50 values were calculated based on the effective percentage of analgesia using the software Graphpad prism 5.0.
Female mice weighing about 20 g were placed on a hot plate apparatus preheated to 55° C. and the latency of the hindfoot response was used as an indicator of pain threshold. […]

[1] = Table 3-1, 1 μM concentration of compounds, read-out: μOR Binding rate (%)
[2] = 0.5 h, Table 3-1, 1 μM concentration of compounds, read-out: δOR Binding rate (%)
[3] = 0.5 h, Table 3-1, 1 μM concentration of compounds, read-out: κOR Binding rate (%)
[4] = 0.5 h, Table 2-1, 1 μM concentration of compound, read-out: δOR Binding rate (%)
[5] = 0.5 h, Table 2-1, 1 μM concentration of compound, read-out: κOR Binding rate (%)

COc1cccc(C2(O)CCN(C(=O)Cc3ccc4ccccc4c3)CC2CN(C)C)c1.Cl (stereo not shown) [FWBE15, 1-(3-((Dimethylamino)methyl)-4-hydroxy-4-(3-methoxyphenyl)piperidin-1-yl)-2-(naphthalen-2-yl)ethyl-1-one hydrochloride]
Ki (μ opioid receptor; Table 5-1): 0.0816 ± 0.001 µM | Ki (δ opioid receptor; Table 5-1): > 10 µM | Ki (κ opioid receptor; Table 5-1): 2.651 ± 0.0035 µM | Maximum percentage effective analgesia (% MPE) (Female mice): 0%

COc1cccc(C2(O)CCC(N(C)S(=O)(=O)c3ccccc3)CC2CN(C)C)c1.Cl (stereo not shown) [N-(3-((Dimethylamino)methyl)-4-hydroxy-4-(3-methoxyphenyl)cyclohexyl)-N-methylbenzenesulfonamide hydrochloride]
inhibition at 10 µM (μ opioid receptor; Table 1-1, 10 μM concentration of compound, mean ± SD of three measurements, read-out: μOR Binding rate (%)): 86.7 ± 1.6% | inhibition at 10 µM (δ opioid receptor; 0.5 h, Table 1-1, 10 μM concentration of compound, read-out: δOR Binding rate (%)): 0% | inhibition at 10 µM (κ opioid receptor; 0.5 h, Table 1-1, 10 μM concentration of compound, read-out: κOR Binding rate (%)): 46.7 ± 9.2% | Maximum percentage effective analgesic (% MPE) (Female mice; Table 1-2, hot plate 55° C., 5 mg/kg dose): 15.8%

COc1cccc(C2(O)CCN(C(=O)Cc3ccsc3)CC2CN(C)C)c1.Cl (stereo not shown) [FWBE2, 1-(3-((Dimethylamino)methyl)-4-hydroxy-4-(3-methoxyphenyl)piperidin-1-yl)-2-(thiophen-3-yl)ethyl-1-one hydrochloride]
inhibition at 1 µM (μ opioid receptor; 0.5 h, read-out: μOR Combination rate (%)): 40.6 ± 0.9% | inhibition at 1 µM (δ opioid receptor; 0.5 h, read-out: δOR Combination rate (%)): 14.7 ± 0.9% | inhibition at 1 µM (κ opioid receptor; 0.5 h, read-out: κOR Combination rate (%)): 20.8 ± 1.9% | Maximum percentage effective analgesia (% MPE) (Female mice): 42%

COc1cccc(C2(O)CCN(C(=O)c3cc(F)c(F)cc3F)CC2CN(C)C)c1.Cl (stereo not shown) [FWBE5, (3-((Dimethylamino)methyl)-4-hydroxy-4-(3-methoxyphenyl)piperidin-1-yl)(2,4,5-trifluorophenyl)methanone hydrochloride]
inhibition at 1 µM (μ opioid receptor; 0.5 h, Table 5-1, 1 μM concentration of compound, read-out: μOR Combination rate (%)): 13 ± 0.2% | inhibition at 1 µM (δ opioid receptor; 0.5 h, Table 5-1, 1 μM concentration of compound, read-out: δOR Combination rate (%)): 7 ± 6.3% | inhibition at 1 µM (κ opioid receptor; 0.5 h, Table 5-1, 1 μM concentration of compound, read-out: κOR Combination rate (%)): 23 ± 5.9% | Maximum percentage effective analgesia (% MPE) (Female mice): 3%

COc1cccc(C2(O)CCN(C(=O)NCc3ccccc3)CC2CN(C)C)c1 (stereo not shown) [FWBF12, N-Benzyl-3-((dimethylamino)methyl)-4-hydroxy-4-(3-methoxyphenyl)piperidine-1-carboxamide hydrochloride]
inhibition at 1 µM (μ opioid receptor; [1]): 35.1 ± 4.4% | inhibition at 1 µM (δ opioid receptor; [2]): 2.6 ± 2.9% | inhibition at 1 µM (κ opioid receptor; [3]): 5.1 ± 4% | % MPE @ 10 mg/kg (Female mice): 15.07%

COc1cccc(C2(O)CCN(C(=O)NC(C)C34CC5CC(CC(C5)C3)C4)CC2CN(C)C)c1.Cl [FWBF15, N-(1-((3R,5R,7R)-adamantan-1-yl)ethyl)-3-((dimethylamino)methyl)-4-hydroxy-4-(3-methoxyphenyl)piperidine-1-carboxamide hydrochloride]
inhibition at 1 µM (μ opioid receptor; [1]): 32.8 ± 5.5% | inhibition at 1 µM (δ opioid receptor; [2]): 0% | inhibition at 1 µM (κ opioid receptor; [3]): 10.4 ± 10.2% | % MPE @ 10 mg/kg (Female mice): 22.07%

COc1cccc(C2(O)CCN(S(=O)(=O)Cc3cccc(Br)c3)CC2CN(C)C)c1.Cl (stereo not shown) [FWBH13, 1-((3-Bromobenzyl)sulfonyl)-3-((dimethylamino)methyl)-4-(3-methoxyphenyl)piperidin-4-ol hydrochloride]
Ki (μ opioid receptor; Table 2-1): 0.0182 ± 0.00437 µM | inhibition at 1 µM (δ opioid receptor; [4]): 15.1 ± 2.47% | inhibition at 1 µM (κ opioid receptor; [5]): 42.1 ± 2.29% | % MPE (5 mg/kg) (Female mice; 5 mg/kg dose): 81.71%

COc1cccc(C2(O)CCN(S(=O)(=O)C(C)C)CC2CN(C)C)c1.Cl (stereo not shown) [FWBH20, 3-((Dimethylamino)methyl)-1-(isopropylsulfonyl)-4-(3-methoxyphenyl)piperidin-4-ol hydrochloride]
Ki (μ opioid receptor; Table 2-1): 0.255 ± 0.0053 µM | inhibition at 1 µM (δ opioid receptor; [4]): 20.8 ± 1.91% | inhibition at 1 µM (κ opioid receptor; [5]): 6.88 ± 4.38% | % MPE (5 mg/kg) (Female mice; 5 mg/kg dose): 0%

COc1cccc(C2(O)CCN(C(=O)C3(c4ccccc4)CCC3)CC2CN(C)C)c1.Cl (stereo not shown) [FWBE25, (3-((Dimethylamino)methyl)-4-hydroxy-4-(3-methoxyphenyl)piperidin-1-yl)(1-phenylcyclobutyl) methanone hydrochloride]
Ki (μ opioid receptor; Table 5-1): 0.0809 ± 0.00567 µM | Ki (δ opioid receptor; Table 5-1): 0.717 ± 0.253 µM | Ki (κ opioid receptor; Table 5-1): 0.205 ± 0.0409 µM | Maximum percentage effective analgesia (% MPE) (Female mice): 5.03%

COc1cccc(C2(O)CCN(S(=O)(=O)Cc3ccc(Cl)cc3)CC2CN(C)C)c1.Cl (stereo not shown) [FWBH11, 1-((4-Chlorobenzyl)sulfonyl)-3-((dimethylamino)methyl)-4-(3-methoxyphenyl)piperidin-4-ol hydrochloride]
Ki (μ opioid receptor; Table 2-1): 0.7117 ± 0.00365 µM | inhibition at 1 µM (δ opioid receptor; [4]): 50.9 ± 1.58% | inhibition at 1 µM (κ opioid receptor; [5]): 36.6 ± 3.32% | % MPE (5 mg/kg) (Female mice; 5 mg/kg dose): 55.49%

— patent publication US12624004B2 (Fudan University, priority 2019, dated 2026)
